{"source": "patent US8501767B2", "about": "“Imidazopyridines and imidazopyrimidines as HIV-1 reverse transcriptase inhibitors” (CSIR, priority 2008, dated 2013)", "key": {"[1]": {"tested_on": "HIV-1", "assay": "Whole cell PBMC anti-HIV assay (human PBMCs, supernatant reverse transcriptase activity)", "assay_type": "cell-based", "conditions": "Human immunodeficiency virus 1, PBMC", "experimental": "Fresh human PBMCs, seronegative for HIV and HBV, were isolated from screened donors (Interstate Blood Bank, Inc. Memphis, Tenn.). Cells were pelleted/washed 2-3 times by low speed centrifugation and re-suspension in PBS to remove contaminating platelets. The Leukophoresed blood was then diluted 1:1 with Dulbecco's Phosphate Buffered Saline (DPBS) and layered over 14 mL of Lymphocyte Separation Medium (LSM; Cellgro® by Mediatech, Inc.; density 1.078+/−0.002 g/ml; Cat.#85-072-CL) in a 50 mL centrifuge tube and then centrifuged for 30 minutes at 600×g. Banded PBMCs were gently aspirated from the resulting interface and subsequently washed 2× with PBS by low speed centrifugation. […]\nFor the standard PBMC assay, PHA-P stimulated cells from at least two normal donors were pooled (mixed together), diluted in fresh medium to a final concentration of 1×10^6 cells/mL, and plated in the interior wells of a 96 well round bottom microplate at 50 μl/well (5×10^4 cells/well) in a standard format developed by the Infectious Disease Research department of Southern Research Institute. Pooling (mixing) of mononuclear cells from more than one donor is used to minimize the variability observed between individual donors, which results from quantitative and qualitative differences in HIV infection and overall response to the PHA and IL-2 of primary lymphocyte populations. […]"}, "[2]": {"tested_on": "HIV-1", "assay": "Whole cell MAGI anti-HIV assay (MAGI-R5 cells, LTR-β-galactosidase reporter)", "assay_type": "cell-based", "conditions": "Human immunodeficiency virus 1, MAGI"}, "[3]": {"biological_target": "HIV-1 reverse transcriptase (Human immunodeficiency virus type 1 group M subtype B (isolate HXB2) (HIV-1), UniProt P04585)", "assay": "Enzymatic assay against HIV-1 reverse transcriptase (sandwich-ELISA, ROCHE colorimetric reverse transcriptase kit)", "assay_type": "biochemical", "conditions": "4-fold serial dilutions", "experimental": "Enzymatic Method for Determining Activity Against Reverse Transcriptase\nBiotin and DIG-labelled nucleotides are incorporated into cDNA strands polymerized on an RNA template by the action of HIV-1 reverse transcriptase. The cDNA products are bound to streptavidin-coated wells of 96-well plate inserts, and their associated DIG-moieties detected by incubation with anti-DIG antibodies conjugated to horseradish peroxidase (HRP).\nIn the single concentration screen, compounds are incubated with HIV-1 reverse trancriptase and substrate and the residual enzyme activity expressed as a percentage relative to a control without inhibitor."}}}
{"smiles": "Clc1ccccc1-c1nc2ccccn2c1NC1CCCCC1", "note": "[Compound 8, 2-(2-chlorophenyl)-N-cyclohexylimidazo[1,2-a]pyridin-3-amine]", "values": [{"measurement": "IC50", "setting": "[1]", "result": 0.16, "unit": "µM"}]}
{"smiles": "Clc1ccccc1-c1nc2cccc(Br)n2c1NC1CCCCC1", "note": "[Compound 42, 5-bromo-2-(2-chlorophenyl)-N-cyclohexylimidazo[1,2-a]pyridin-3-amine]", "values": [{"measurement": "IC50", "setting": "[2]", "result": 3.15, "unit": "µM"}, {"measurement": "IC50", "setting": "[3]", "result": 4.62, "unit": "µM"}]}
{"smiles": "Brc1ccccc1-c1nc2ccccn2c1NC1CCCCC1", "note": "[Compound 43, 2-(2-bromophenyl)-N-cyclohexylimidazo[1,2-a]pyridin-3-amine]", "values": [{"measurement": "IC50", "setting": "[2]", "result": 2.21, "unit": "µM"}, {"measurement": "IC50", "setting": "[3]", "result": 10, "unit": "µM"}]}
{"smiles": "Clc1ccccc1-c1nc2cccc(Cl)n2c1NC1CCCC1", "note": "[Compound 48, 5-chloro-2-(2-chlorophenyl)-N-cyclopentylimidazo[1,2-a]pyridin-3-amine]", "values": [{"measurement": "IC50", "setting": "[3]", "result": 5.14, "unit": "µM"}]}
{"smiles": "Cc1ccc(Cl)c(-c2nc3ccccn3c2NC2CCCCC2)c1F", "note": "[Compound 74, 2-(6-chloro-2-fluoro-3-methylphenyl)-N-cyclohexylimidazo[1,2-a]pyridin-3-amine]", "values": [{"measurement": "IC50", "setting": "[2]", "result": 2.36, "unit": "µM"}, {"measurement": "IC50", "setting": "[3]", "result": 90, "unit": "µM"}]}
{"smiles": "Fc1ccc2nc(-c3ccccc3Cl)c(NC3CCCCC3)n2c1", "note": "[Compound 81, 2-(2-chlorophenyl)-N-cyclohexyl-6-fluoroimidazo[1,2-a]pyridin-3-amine]", "values": [{"measurement": "IC50", "setting": "[2]", "result": 1.88, "unit": "µM"}, {"measurement": "IC50", "setting": "[3]", "result": 11.3, "unit": "µM"}]}
{"smiles": "Clc1ccc2nc(-c3ccccc3Cl)c(NC3CCCCC3)n2c1", "note": "[Compound 82, 6-chloro-2-(2-chlorophenyl)-N-cyclohexylimidazo[1,2-a]pyridin-3-amine]", "values": [{"measurement": "IC50", "setting": "[2]", "result": 0.84, "unit": "µM"}, {"measurement": "IC50", "setting": "[3]", "result": 14.5, "unit": "µM"}]}
{"smiles": "Clc1ccc(-c2nc3ccccn3c2NC2CCCCC2)c(Cl)c1", "note": "[Compound 89, N-cyclohexyl-2-(2,4-dichlorophenyl)imidazo[1,2-a]pyridin-3-amine]", "values": [{"measurement": "IC50", "setting": "[2]", "result": 2.95, "unit": "µM"}, {"measurement": "IC50", "setting": "[3]", "result": 21.8, "unit": "µM"}]}
{"smiles": "N#Cc1ccc2nc(-c3ccccc3Cl)c(NC3CCCCC3)n2c1", "note": "[Compound 96, 2-(2-chlorophenyl)-3-(cyclohexylamino)imidazo[1,2-a]pyridine-6-carbonitrile]", "values": [{"measurement": "IC50", "setting": "[2]", "result": 0.63, "unit": "µM"}, {"measurement": "IC50", "setting": "[3]", "result": 6.6, "unit": "µM"}]}
{"smiles": "Clc1ccccc1-c1nc2ccc3ccccc3n2c1NC1CCCCC1", "note": "[Compound 97, 2-(2-chlorophenyl)-N-cyclohexylimidazo[1,2-a]quinolin-1-amine]", "values": [{"measurement": "IC50", "setting": "[3]", "result": 7.52, "unit": "µM"}]}
{"smiles": "Clc1ccccc1-c1nc2ccc(Br)cn2c1NC1CCCCC1", "note": "[Compound 99, 6-bromo-2-(2-chlorophenyl)-N-cyclohexylimidazo[1,2-a]pyridin-3-amine]", "values": [{"measurement": "IC50", "setting": "[2]", "result": 2.19, "unit": "µM"}, {"measurement": "IC50", "setting": "[3]", "result": 12.2, "unit": "µM"}]}
{"smiles": "Clc1ccccc1-c1nc2cccc(Cl)n2c1NC1CCCCC1", "note": "[Compound 104, 5-chloro-2-(2-chlorophenyl)-N-cyclohexylimidazo[1,2-a]pyridin-3-amine]", "values": [{"measurement": "IC50", "setting": "[3]", "result": 3.74, "unit": "µM"}]}
{"smiles": "N#Cc1cccc2nc(-c3ccccc3Cl)c(NC3CCCCC3)n12", "note": "[Compound 116, 2-(2-chlorophenyl)-3-(cyclohexylamino)imidazo[1,2-a]pyridine-5-carbonitrile]", "values": [{"measurement": "IC50", "setting": "[3]", "result": 3.47, "unit": "µM"}]}
{"smiles": "Clc1ccccc1-c1nc2ccccn2c1NC1CCCC1", "note": "[Compound 118, 2-(2-chlorophenyl)-N-cyclopentylimidazo[1,2-a]pyridin-3-amine]", "values": [{"measurement": "IC50", "setting": "[2]", "result": 2.19, "unit": "µM"}]}
{"smiles": "Cc1ccc2nc(-c3ccccc3Cl)c(NC3CCCCC3)n2c1", "note": "[Compound 163, 2-(2-chlorophenyl)-N-cyclohexyl-6-methylimidazo[1,2-a]pyridin-3-amine]", "values": [{"measurement": "IC50", "setting": "[3]", "result": 5.39, "unit": "µM"}]}
{"smiles": "Cc1cccc2nc(-c3ccccc3Cl)c(NC3CCCCC3)n12", "note": "[Compound 166, 2-(2-chlorophenyl)-N-cyclohexyl-5-methylimidazo[1,2-a]pyridin-3-amine]", "values": [{"measurement": "IC50", "setting": "[3]", "result": 1.55, "unit": "µM"}]}
{"smiles": "Cc1cccn2c(NC3CCCC3)c(-c3ccccc3Cl)nc12", "note": "[Compound 170, 2-(2-chlorophenyl)-N-cyclopentyl-8-methylimidazo[1,2-a]pyridin-3-amine]", "values": [{"measurement": "IC50", "setting": "[3]", "result": 15.9, "unit": "µM"}]}
{"smiles": "Cc1cccc2nc(-c3ccccc3Cl)c(NC3CCCC3)n12", "note": "[Compound 171, 2-(2-chlorophenyl)-N-cyclopentyl-5-methylimidazo[1,2-a]pyridin-3-amine]", "values": [{"measurement": "IC50", "setting": "[3]", "result": 1.43, "unit": "µM"}]}
{"smiles": "Cc1ccnc2c1NC(=O)c1cccnc1N2C1CC1", "note": "[Nevirapine, reference compound]", "values": [{"measurement": "IC50", "setting": "[1]", "result": 0.033, "unit": "µM"}, {"measurement": "IC50", "setting": "[2]", "result": 0.1, "unit": "µM"}]}
